Consider nine compounds from patent publication US20230116114A1, “COMPOUNDS AND COMPOSITIONS FOR TREATING CNS DISORDERS” (Blue Oak Pharmaceuticals, Inc., priority 2020, published 2023).

Structures can show the parent of a compound that is named as a salt.

This test concerns mice. Description: SmartCube in vivo neuropharmacological behavioral assay. As to conditions: for minimal effective dose: Mus musculus, ip, 0.25 h, dose having 50% or more total activity in SmartCube, i.p., read-out: MED (minimal effective dose); for AD: antidepressant (percent probability) / AG: analgesic (percent probability) / AP: antipsychotic (percent probability) / AX: anxiolytic (percent probability) / CE: cognitive enhancer (percent probability) / HA: hallucinogenic (percent probability) / MS: mood stabilizer (percent probability) / PS (percent probability) / SD: sedative hypnotic (percent probability) / SE: side effects (percent probability) / UN: uncharacterized CNS activity (percent probability) / XG: anxiogenic (percent probability): SmartCube, i.p. 15 min before test, result at the MED. The method in brief: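 Mice dosed i.p. in NMP (Pharmasolve) 15 min before automated video behavioral testing at several doses (e.g., 0.3-30 mpk). Signatures compared to reference drug classes giving per-class probabilities (0-100); MED is the lowest dose with ≥50% total activity.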

On to `CC(C)N1C2CCCC1c1cc(F)c(F)cc12` [Compound 41, 4,5-Difluoro-12-(propan-2-yl)-12-azatricyclo[6.3.1.0^2,7]dodeca-2,4,6-triene], for which the minimal effective dose is 10 to 30 mg/kg, the “AD: antidepressant (percent probability)” value is reported as “++ (5% ≤ X < 25%)”, the “AG: analgesic (percent probability)” value is on record as “++ (5% ≤ X < 25%)” and the “AP: antipsychotic (percent probability)” value is “++ (5% ≤ X < 25%)”. Further, the “AX: anxiolytic (percent probability)” value is listed as “++ (5% ≤ X < 25%)”, the “CE: cognitive enhancer (percent probability)” value was “++ (5% ≤ X < 25%)”, the “HA: hallucinogenic (percent probability)” value is reported as “+ (LOQ ≤ X < 5%)” and the “MS: mood stabilizer (percent probability)” value (from here on “MS … (percent probability)”) is given as “+ (LOQ ≤ X < 5%)”. The “PS (percent probability)” value is on record as “+ (LOQ ≤ X < 5%)”, the “SD: sedative hypnotic (percent probability)” value (“SD … (percent probability)” for short) is “+ (LOQ ≤ X < 5%)”, the “SE: side effects (percent probability)” value was “+ (LOQ ≤ X < 5%)” and the “UN: uncharacterized CNS activity (percent probability)” value (“UN … (percent probability)” for short) is recorded as “+++ (25% ≤ X < 50%)”. Further, the “XG: anxiogenic (percent probability)” value is on record as “+ (LOQ ≤ X < 5%)”.
Regarding `C[C@H]1CC[C@@H]2N[C@H]1c1ccccc12` (stereo in doubt) [Compound 32, 9-Methyl-12-azatricyclo[6.3.1.0^2,7]dodeca-2,4,6-triene hydrochloride], the minimal effective dose is 10 to 30 mg/kg, the “AD: antidepressant (percent probability)” value is listed as “+ (LOQ ≤ X < 5%)”, the “AG: analgesic (percent probability)” value is “+ (LOQ ≤ X < 5%)” and the “AP: antipsychotic (percent probability)” value is reported as “+ (LOQ ≤ X < 5%)”. In addition, the “AX: anxiolytic (percent probability)” value is on record as “+ (LOQ ≤ X < 5%)”, the “CE: cognitive enhancer (percent probability)” value is listed as “+ (LOQ ≤ X < 5%)”, the “HA: hallucinogenic (percent probability)” value is recorded as “++++ (50% ≤ X < 100%)” and the “MS … (percent probability)” value was “+ (LOQ ≤ X < 5%)”. Moreover, the “PS (percent probability)” value is given as “++ (5% ≤ X < 25%)”, the “SD … (percent probability)” value is listed as “+ (LOQ ≤ X < 5%)”, the “SE: side effects (percent probability)” value is listed as “+ (LOQ ≤ X < 5%)” and the “UN … (percent probability)” value is “+ (LOQ ≤ X < 5%)”. Also, the “XG: anxiogenic (percent probability)” value is “+ (LOQ ≤ X < 5%)”.
Turning to `c1ccc2c(c1)C1CCCC2N1C1CCCC1` [Compound 4, 12-Cyclopentyl-12-azatricyclo[6.3.1.0^2,7]dodeca-2,4,6-triene hydrochloride], the minimal effective dose was 1 to 10 mg/kg, the “AD: antidepressant (percent probability)” value is “+++ (25% ≤ X < 50%)”, the “AG: analgesic (percent probability)” value is listed as “++ (5% ≤ X < 25%)” and the “AP: antipsychotic (percent probability)” value is reported as “+ (LOQ ≤ X < 5%)”. Moreover, the “AX: anxiolytic (percent probability)” value is given as “++ (5% ≤ X < 25%)”, the “CE: cognitive enhancer (percent probability)” value is listed as “+ (LOQ ≤ X < 5%)”, the “HA: hallucinogenic (percent probability)” value was “+ (LOQ ≤ X < 5%)” and the “MS … (percent probability)” value was “+ (LOQ ≤ X < 5%)”. In addition, the “PS (percent probability)” value is “++ (5% ≤ X < 25%)”, the “SD … (percent probability)” value is recorded as “+ (LOQ ≤ X < 5%)”, the “SE: side effects (percent probability)” value is recorded as “+ (LOQ ≤ X < 5%)” and the “UN … (percent probability)” value was “+ (LOQ ≤ X < 5%)”. Moreover, the “XG: anxiogenic (percent probability)” value is “+ (LOQ ≤ X < 5%)”.
Regarding `c1ccc2c(c1)CC(N1C3CCCC1c1ccccc13)C2` [Compound 11, 12-(2,3-Dihydro-1H-inden-2-yl)-12-azatricyclo[6.3.1.0^2,7]dodeca-2,4,6-triene hydrochloride], the minimal effective dose lay in the range of 10 to 30 mg/kg, the “AD: antidepressant (percent probability)” value is recorded as “+ (LOQ ≤ X < 5%)”, the “AG: analgesic (percent probability)” value is “++ (5% ≤ X < 25%)” and the “AP: antipsychotic (percent probability)” value is recorded as “+ (LOQ ≤ X < 5%)”. Besides, the “AX: anxiolytic (percent probability)” value is recorded as “++ (5% ≤ X < 25%)”, the “CE: cognitive enhancer (percent probability)” value is given as “++ (5% ≤ X < 25%)”, the “HA: hallucinogenic (percent probability)” value was “+ (LOQ ≤ X < 5%)” and the “MS … (percent probability)” value was “+ (LOQ ≤ X < 5%)”. The “PS (percent probability)” value is “+ (LOQ ≤ X < 5%)”, the “SD … (percent probability)” value is recorded as “+ (LOQ ≤ X < 5%)”, the “SE: side effects (percent probability)” value is recorded as “+ (LOQ ≤ X < 5%)” and the “UN … (percent probability)” value is given as “+++ (25% ≤ X < 50%)”. In addition, the “XG: anxiogenic (percent probability)” value is reported as “+ (LOQ ≤ X < 5%)”.
Regarding `CC(C)N1C2CCC(O)C1c1ccccc12` (stereo not drawn) [Compound 27, 12-(propan-2-yl)-12-azatricyclo[6.3.1.0^2,7]dodeca-2,4,6-trien-9-ol hydrochloride], the minimal effective dose was in the range of 10 to 30 mg/kg, the “AD: antidepressant (percent probability)” value is recorded as “+++ (25% ≤ X < 50%)”, the “AG: analgesic (percent probability)” value was “++ (5% ≤ X < 25%)” and the “AP: antipsychotic (percent probability)” value was “+ (LOQ ≤ X < 5%)”. Moreover, the “AX: anxiolytic (percent probability)” value is “++ (5% ≤ X < 25%)”, the “CE: cognitive enhancer (percent probability)” value was “+ (LOQ ≤ X < 5%)”, the “HA: hallucinogenic (percent probability)” value is reported as “++ (5% ≤ X < 25%)” and the “MS … (percent probability)” value is recorded as “+ (LOQ ≤ X < 5%)”. The “PS (percent probability)” value is on record as “++ (5% ≤ X < 25%)”, the “SD … (percent probability)” value is given as “+ (LOQ ≤ X < 5%)”, the “SE: side effects (percent probability)” value is listed as “+ (LOQ ≤ X < 5%)” and the “UN … (percent probability)” value is on record as “+ (LOQ ≤ X < 5%)”. The “XG: anxiogenic (percent probability)” value was “+ (LOQ ≤ X < 5%)”.
Turning to `CCCN1C2CCCC1c1ccccc12` [Compound 7, 12-Propyl-12-azatricyclo[6.3.1.0^2,7]dodeca-2,4,6-triene hydrochloride], the minimal effective dose lay within 10 to 30 mg/kg, the “AD: antidepressant (percent probability)” value is given as “++ (5% ≤ X < 25%)”, the “AG: analgesic (percent probability)” value was “+++ (25% ≤ X < 50%)” and the “AP: antipsychotic (percent probability)” value is on record as “+ (LOQ ≤ X < 5%)”. The “AX: anxiolytic (percent probability)” value is reported as “++ (5% ≤ X < 25%)”, the “CE: cognitive enhancer (percent probability)” value was “+ (LOQ ≤ X < 5%)”, the “HA: hallucinogenic (percent probability)” value is on record as “+ (LOQ ≤ X < 5%)” and the “MS … (percent probability)” value was “+ (LOQ ≤ X < 5%)”. Besides, the “PS (percent probability)” value is “++ (5% ≤ X < 25%)”, the “SD … (percent probability)” value was “+ (LOQ ≤ X < 5%)”, the “SE: side effects (percent probability)” value was “+ (LOQ ≤ X < 5%)” and the “UN … (percent probability)” value is “+ (LOQ ≤ X < 5%)”. Besides, the “XG: anxiogenic (percent probability)” value was “+ (LOQ ≤ X < 5%)”.
Take `CC1CC2c3ccccc3C(C1)N2C1CC1` (stereo not drawn) [Compound 38, 12-azatricyclo[6.3.1.0^2,7]dodeca-2,4,6-trien-10-yl}methylium hydrochloride]: the minimal effective dose was in the range of 10 to 30 mg/kg, the “AD: antidepressant (percent probability)” value is “++++ (50% ≤ X < 100%)”, the “AG: analgesic (percent probability)” value was “+ (LOQ ≤ X < 5%)” and the “AP: antipsychotic (percent probability)” value is reported as “+ (LOQ ≤ X < 5%)”. Also, the “AX: anxiolytic (percent probability)” value is given as “+ (LOQ ≤ X < 5%)”, the “CE: cognitive enhancer (percent probability)” value is “++ (5% ≤ X < 25%)”, the “HA: hallucinogenic (percent probability)” value was “++ (5% ≤ X < 25%)” and the “MS … (percent probability)” value was “+ (LOQ ≤ X < 5%)”. Besides, the “PS (percent probability)” value is reported as “+ (LOQ ≤ X < 5%)”, the “SD … (percent probability)” value is reported as “+ (LOQ ≤ X < 5%)”, the “SE: side effects (percent probability)” value was “+ (LOQ ≤ X < 5%)” and the “UN … (percent probability)” value is reported as “+ (LOQ ≤ X < 5%)”. Besides, the “XG: anxiogenic (percent probability)” value is “+ (LOQ ≤ X < 5%)”.
In the case of `c1ccc2c(c1)C1CCCC2N1C1CCCCC1` [Compound 13, 12-Cyclohexyl-12-azatricyclo[6.3.1.0^2,7]dodeca-2,4,6-triene hydrochloride], the minimal effective dose was 10 to 30 mg/kg, the “AD: antidepressant (percent probability)” value was “+++ (25% ≤ X < 50%)”, the “AG: analgesic (percent probability)” value is given as “+ (LOQ ≤ X < 5%)” and the “AP: antipsychotic (percent probability)” value was “+ (LOQ ≤ X < 5%)”. For the same compound, the “AX: anxiolytic (percent probability)” value is “++ (5% ≤ X < 25%)”, the “CE: cognitive enhancer (percent probability)” value was “+ (LOQ ≤ X < 5%)”, the “HA: hallucinogenic (percent probability)” value was “+ (LOQ ≤ X < 5%)” and the “MS … (percent probability)” value was “+ (LOQ ≤ X < 5%)”. The “PS (percent probability)” value is “++ (5% ≤ X < 25%)”, the “SD … (percent probability)” value is listed as “+ (LOQ ≤ X < 5%)”, the “SE: side effects (percent probability)” value is reported as “+ (LOQ ≤ X < 5%)” and the “UN … (percent probability)” value is reported as “+ (LOQ ≤ X < 5%)”. Besides, the “XG: anxiogenic (percent probability)” value is on record as “+ (LOQ ≤ X < 5%)”.
Take `c1ccc2c(c1)C1CCCC2N1` [Compound 1, 12-Azatricyclo[6.3.1.0^2,7]dodeca-2,4,6-triene]: the minimal effective dose is 10 to 30 mg/kg, the “AD: antidepressant (percent probability)” value was “++ (5% ≤ X < 25%)”, the “AG: analgesic (percent probability)” value is listed as “++ (5% ≤ X < 25%)” and the “AP: antipsychotic (percent probability)” value is listed as “+ (LOQ ≤ X < 5%)”. Also, the “AX: anxiolytic (percent probability)” value is listed as “++ (5% ≤ X < 25%)”, the “CE: cognitive enhancer (percent probability)” value was “+++ (25% ≤ X < 50%)”, the “HA: hallucinogenic (percent probability)” value is listed as “+ (LOQ ≤ X < 5%)” and the “MS … (percent probability)” value is listed as “+ (LOQ ≤ X < 5%)”. The “PS (percent probability)” value was “+ (LOQ ≤ X < 5%)”, the “SD … (percent probability)” value was “+ (LOQ ≤ X < 5%)”, the “SE: side effects (percent probability)” value is listed as “++ (5% ≤ X < 25%)” and the “UN … (percent probability)” value was “+ (LOQ ≤ X < 5%)”. For the same compound, the “XG: anxiogenic (percent probability)” value is “+ (LOQ ≤ X < 5%)”.
